How the values were obtained:
Type in all cases: in vivo, mouse
[1] = tested on: S100A9; assay: Microarray gene expression in brain, spleen and liver of Hsd:Athymic Nude-Foxn1nu mice (Example 7)
Protocol: (§1) Total RNA was extracted from samples using the RNeasy extraction kit (Qiagen). The quality and concentration of the RNA was analyzed using the Agilent 2100 bioanalyzer and NanoDrop™ ND-1000 (Thermo Scientific). Samples with RNA integrity number (RIN)<6.0 were discarded. Total RNA (0.5 μg) amplification and labelling with Cy3 or Cy5 was carried out using the Eberwein mRNA amplification procedure (Van Gelder et al, Proc Natl Acad Sci USA 1990, 87:1663-1667) employing the MessageAmp™ aRNA amplification kit from Ambion (Applied Biosystems) following the manufacturer's instructions with minor modifications. As hybridization controls, plant mRNAs were transcribed from a plasmid containing the Zea mays Xet (xyloglucan endo-transglycosylase) cDNA and from a plasmid containing the Zea mays Zmmyb42 cDNA, independently prepared Cy3 and Cy5 labelled aRNA from these two RNAs using the Eberwein mRNA amplification procedure (as disclosed in Cerdà et al, Gen Comp Endocrinol 2008, 156:470-481).
(§2) The Cy3- and Cy5-labelled cRNAs and spikes were combined and hybridized to the microarray described in Example 2.6 for 17 h at 60° C. using Agilent's gaskets G2534-60002, G2534A hybridization chambers and DNA Hybridization Oven G2545A, according to the manufacturer's instructions. More specifically, equal amounts of Cy3 and Cy5 labeled Xet aRNA as well as equal amounts of Cy3 and Cy5 labeled Zmmyb42 aRNA were spiked into each mixture hybridized to the array. Arrays were washed and raw data were obtained using Agilent's DNA Microarray Scanner G2505B and Feature Extraction software (v10.1). The raw fluorescence intensity data were processed using applicant's proprietary software, and consists in the following operations:
(§3) Data normalization was carried out by an improved version of the nonlinear Q-splines normalization method (Workman et al., Genome Biol 2002, 3(9):research0048.1-0048.16). Normalization results were presented graphically as MA plots, as first described by Dudoit et al (Dudoit et al, Statistica Sinica, 2002, 12:111-139). Each point corresponds to a probe of the DNA array. M values (vertical axis) are the log-differential expression ratios. A values (horizontal axis) are the log-intensities of the spots. M and A are calculated from the Cy5 and Cy3 intensity values as of each spot. The DNA Array data is normalized using an improved version of non-linear Q-Splines normalization described by Workman et al., Genome Biol 2002, 3(9):research0048.1-0048.16. This process is useful to correct the deviation of the M values from the statistical assumption that most of the spots have M=0 in MA plots. The method allows the adjustment of all M values to form a cloud centered at M=0 in all intensity ranges. The data used to calculate the normalization fitting curve is the totality of the raw measurement dataset, excluding the signals for the probes for the spiked-in plant RNA controls and negative controls. In order to be able to normalize properly the data among all the experiments, the probe-set must include an important group of genes that should have no change (M=0) in the experiment. The normalization function is then applied to all the data, including controls.
(§4) Normalized and log-transformed data were used to calculate log 2 (sample/control) and Fold Change (FC) values. No background subtraction was applied to the signal intensity values during data processing, permitting robust selection of differentially expressed genes with low expression levels at the cost of potential sub-estimation of change when intensity levels are close to the array background level.
(§5) Powered Compound 3, 4 or 5 was dissolved in a 20% solution of 2-hydroxypropyl-R-cyclodextrin in water at the appropriate concentrations, vortexed and placed in an ultrasonic bath for 5 minutes.
(§6) Hsd:Athymic Nude-Foxn1nu mice were maintained in air- and temperature-controlled cages with regular supply of water and food. A maximum of 6 mice/cage were raised. […]

[2] = tested on: S100A8; assay: as above
Protocol: as §1, §2, §3, §4, §5, §6

[3] = tested on: TUBB2C; assay: Microarray gene expression in brain, spleen and liver of Hsd:Athymic Nude-Foxn1nu mice (Example 7), housekeeping gene
Protocol: as §1, §2, §3, §4, §5, §6

[4] = tested on: TUBB3; assay: as above
Protocol: as §1, §2, §3, §4, §5, §6

In the case of `CN1CCN(C(=O)CN[C@H]2C[C@@H]2c2ccc(OCc3ccccc3)cc2)CC1` (racemic) [Compound 4, 2-(((trans)-2-(4-(benzyloxy)phenyl)cyclopropyl)amino)-1-(4-methylpiperazin-1-yl)ethan-1-one], the “Hybridization signal sample_Cy5” value ([1]; BRAIN, S100A9, 1 mg/kg) is reported as 306.245, the “log2 (sample/control)” value ([1]; BRAIN, S100A9, 1 mg/kg vs VEH) is reported as −2.143 and the “Hybridization signal sample_Cy5” value ([1]; BRAIN, S100A9, 3 mg/kg) is reported as 132.716. For the same compound, the “log2 (sample/control)” value ([1]; BRAIN, S100A9, 3 mg/kg vs VEH) was −3.286, the “Hybridization signal sample_Cy5” value ([1]; BRAIN, S100A9, 10 mg/kg) was 78.7372 and the “log2 (sample/control)” value ([1]; BRAIN, S100A9, 10 mg/kg vs VEH) was −4.222. The “Hybridization signal sample_Cy5” value ([1]; LIVER, S100A9, 1 mg/kg) was 666.426, the “log2 (sample/control)” value ([1]; LIVER, S100A9, 1 mg/kg vs VEH) was −1.192 and the “Hybridization signal sample_Cy5” value ([1]; LIVER, S100A9, 3 mg/kg) was 490.218. For the same compound, the “log2 (sample/control)” value ([1]; LIVER, S100A9, 3 mg/kg vs VEH) was −1.632, the “Hybridization signal sample_Cy5” value ([1]; LIVER, S100A9, 10 mg/kg) was 386.758 and the “log2 (sample/control)” value ([1]; LIVER, S100A9, 10 mg/kg vs VEH) was −1.928. The “Hybridization signal sample_Cy5” value ([1]; SPLEEN, S100A9, 1 mg/kg) was 13748.6, the “log2 (sample/control)” value ([1]; SPLEEN, S100A9, 1 mg/kg vs VEH) was −1.579 and the “Hybridization signal sample_Cy5” value ([1]; SPLEEN, S100A9, 3 mg/kg) was 3824.62. For the same compound, the “log2 (sample/control)” value ([1]; SPLEEN, S100A9, 3 mg/kg vs VEH) was −3.541, the “Hybridization signal sample_Cy5” value ([1]; SPLEEN, S100A9, 10 mg/kg) was 2502.64 and the “log2 (sample/control)” value ([1]; SPLEEN, S100A9, 10 mg/kg vs VEH) was −4.161. The “Hybridization signal sample_Cy5” value ([2]; BRAIN, S100A8, 1 mg/kg) was 106.74, the “log2 (sample/control)” value ([2]; BRAIN, S100A8, 1 mg/kg vs VEH) was −1.761 and the “Hybridization signal sample_Cy5” value ([2]; BRAIN, S100A8, 3 mg/kg) was 65.756. The “log2 (sample/control)” value ([2]; BRAIN, S100A8, 3 mg/kg vs VEH) was −2.35, the “Hybridization signal sample_Cy5” value ([2]; BRAIN, S100A8, 10 mg/kg) was 46.781 and the “log2 (sample/control)” value ([2]; BRAIN, S100A8, 10 mg/kg vs VEH) was −3.042. The “Hybridization signal sample_Cy5” value ([2]; LIVER, S100A8, 1 mg/kg) was 220.788, the “log2 (sample/control)” value ([2]; LIVER, S100A8, 1 mg/kg vs VEH) was −0.8718 and the “Hybridization signal sample_Cy5” value ([2]; LIVER, S100A8, 3 mg/kg) was 211.114. For the same compound, the “log2 (sample/control)” value ([2]; LIVER, S100A8, 3 mg/kg vs VEH) was −1.181, the “Hybridization signal sample_Cy5” value ([2]; LIVER, S100A8, 10 mg/kg) was 172.461 and the “log2 (sample/control)” value ([2]; LIVER, S100A8, 10 mg/kg vs VEH) was −1.335. The “Hybridization signal sample_Cy5” value ([2]; SPLEEN, S100A8, 1 mg/kg) was 6016.2, the “log2 (sample/control)” value ([2]; SPLEEN, S100A8, 1 mg/kg vs VEH) was −1.312 and the “Hybridization signal sample_Cy5” value ([2]; SPLEEN, S100A8, 3 mg/kg) was 1854.43. For the same compound, the “log2 (sample/control)” value ([2]; SPLEEN, S100A8, 3 mg/kg vs VEH) was −3.148, the “Hybridization signal sample_Cy5” value ([2]; SPLEEN, S100A8, 10 mg/kg) was 1214.31 and the “log2 (sample/control)” value ([2]; SPLEEN, S100A8, 10 mg/kg vs VEH) was −3.587. The “Hybridization signal sample_Cy5” value ([3]; BRAIN, 1 mg/kg) was 10016.7, the “log2 (sample/control)” value ([3]; BRAIN, 1 mg/kg vs VEH) was −0.04912 and the “Hybridization signal sample_Cy5” value ([3]; BRAIN, 3 mg/kg) was 9877.42. For the same compound, the “log2 (sample/control)” value ([3]; BRAIN, 3 mg/kg vs VEH) was −0.06585, the “Hybridization signal sample_Cy5” value ([3]; BRAIN, 10 mg/kg) was 11991.7 and the “log2 (sample/control)” value ([3]; BRAIN, 10 mg/kg vs VEH) was −0.04291. The “Hybridization signal sample_Cy5” value ([3]; LIVER, 1 mg/kg) was 4327.04, the “log2 (sample/control)” value ([3]; LIVER, 1 mg/kg vs VEH) was 0.2971 and the “Hybridization signal sample_Cy5” value ([3]; LIVER, 3 mg/kg) was 3201.33. The “log2 (sample/control)” value ([3]; LIVER, 3 mg/kg vs VEH) was 0.1069, the “Hybridization signal sample_Cy5” value ([3]; LIVER, 10 mg/kg) was 3143.68 and the “log2 (sample/control)” value ([3]; LIVER, 10 mg/kg vs VEH) was 0.3292. The “Hybridization signal sample_Cy5” value ([3]; SPLEEN, 1 mg/kg) was 13305.5, the “log2 (sample/control)” value ([3]; SPLEEN, 1 mg/kg vs VEH) was −0.3124 and the “Hybridization signal sample_Cy5” value ([3]; SPLEEN, 3 mg/kg) was 11689.6. The “log2 (sample/control)” value ([3]; SPLEEN, 3 mg/kg vs VEH) was −0.4339, the “Hybridization signal sample_Cy5” value ([3]; SPLEEN, 10 mg/kg) was 6541.2 and the “log2 (sample/control)” value ([3]; SPLEEN, 10 mg/kg vs VEH) was −1.316. The “Hybridization signal sample_Cy5” value ([4]; BRAIN, TUBB3, 1 mg/kg) was 4992.04, the “log2 (sample/control)” value ([4]; BRAIN, TUBB3, 1 mg/kg vs VEH) was −0.03825 and the “Hybridization signal sample_Cy5” value ([4]; BRAIN, TUBB3, 3 mg/kg) was 5129.04. For the same compound, the “log2 (sample/control)” value ([4]; BRAIN, TUBB3, 3 mg/kg vs VEH) was 0.07852, the “Hybridization signal sample_Cy5” value ([4]; BRAIN, TUBB3, 10 mg/kg) was 5941.88 and the “log2 (sample/control)” value ([4]; BRAIN, TUBB3, 10 mg/kg vs VEH) was −0.1778. The “Hybridization signal sample_Cy5” value ([4]; LIVER, TUBB3, 1 mg/kg) was 91.4818, the “log2 (sample/control)” value ([4]; LIVER, TUBB3, 1 mg/kg vs VEH) was −0.409 and the “Hybridization signal sample_Cy5” value ([4]; LIVER, TUBB3, 3 mg/kg) was 66.7291. The “log2 (sample/control)” value ([4]; LIVER, TUBB3, 3 mg/kg vs VEH) was −0.2432, the “Hybridization signal sample_Cy5” value ([4]; LIVER, TUBB3, 10 mg/kg) was 103.99 and the “log2 (sample/control)” value ([4]; LIVER, TUBB3, 10 mg/kg vs VEH) was 0.6811. For the same compound, the “Hybridization signal sample_Cy5” value ([4]; SPLEEN, TUBB3, 1 mg/kg) was 76.0246, the “log2 (sample/control)” value ([4]; SPLEEN, TUBB3, 1 mg/kg vs VEH) was 0.2314 and the “Hybridization signal sample_Cy5” value ([4]; SPLEEN, TUBB3, 3 mg/kg) was 114.188. The “log2 (sample/control)” value ([4]; SPLEEN, TUBB3, 3 mg/kg vs VEH) was 0.3352, the “Hybridization signal sample_Cy5” value ([4]; SPLEEN, TUBB3, 10 mg/kg) was 154.437 and the “log2 (sample/control)” value ([4]; SPLEEN, TUBB3, 10 mg/kg vs VEH) was 0.9169.

Reference: US20180284095A1, “BIOMARKERS ASSOCIATED WITH LSD1 INHIBITORS AND USES THEREOF” (Oryzon Genomics, S.A., priority 2015, published 2018)
